Reference: patent EP2769723A1, “Compounds for use in inhibiting HIV capsid assembly” (priority 2013, dated 2014)
Where a name gives a salt, the structure may show the parent alone.

Tests used:
wild type NL4.3 HIV-1 = assay: Tissue culture infectivity test, TZM titration of supernatants from infected TZM cells; assay type: cell-based; details: Human immunodeficiency virus 1, TZM, read-out: tissue culture IC50 (µM)
Method: Hits selected in the YFP-screen were further evaluated in the tissue culture experiments with cells infected with the wild type NL4.3 HIV-1. The virus for infection was obtained from co-culture of MT4 cells. The MT4 cells co-culture was synchronized for one week and then used for the infection of fresh MT 4 cells. 48 hrs post-infection was the culture supernatant harvested, cleared by the filtration through […] filter and stored in -80 °C in 1 ml aliquots. Amount of virus was quantified by enzyme-linked immuno sorbent assay (ELISA) with antibodies against HIV-1 CA (3 ng of CA/ml) and blue cell assay (1x10^5 IU/ml), which gives 3 x 10^4 IU/ng of CA.
For compounds testing the TZM cells were seeded on 96-well plate in the density 5 x 10^3 cells per well. The culture media was aspirated approx. 16 hrs later and cells were infected by the wild type NLA.3 HIV-1 by addition of 50J..il of prepared virus stock diluted with 50 µl of complete DMEM. The compounds were added twice to ensure that there are not any preassembled viruses present at the time of their addition. Compounds were first added 8 hrs post-infection and then 24 hrs later. In both cases the old culture media were replaced by 100 µl of fresh complete DMEM prior to the compounds addition. Different compounds concentrations were tested, but the DMSO concentration never exceeded 1 % DMSO. As controls were used cells treated only with 1 % DMSO and cells treated with 0,1 µM Lopinavir (HIV-1 protease inhibitor). Supernatant was harvested 24 hrs after the second compound addition, i.e. 56 hrs post-infection. Harvested supernatants were immediately titrated on the fresh TZM cells in aim to perform the infectivity assay (TZM titration), or inactivated by addition of Triton X-100 to the final concentration 0.025 % for further ELISA analysis.
TZM titration was performed on the cells seeded day before on 96-well plate in the density 5 x 10^3 cells per well. The analysis was performed for each compound concentration at three different dilutions and in duplicates. The culture media was aspired and cells were lysed 48 hrs post-infection by addition of 100 µl of SteadyGlo luciferase substrate (Promega) diluted 1 : 1 by complete DMEM. The luminescence signal was measured on Luminoskan Ascent (Thermo Labsystems) after the transfer of 80 µl of lysate to the flat bottom white polystyrene assay plates (Costar).

TZM cells = assay: in vitro; assay type: cell-based; details: Table 4; non-cytotoxic when values higher than 80 % of 1 % DMSO treated cells
Method: Cytotoxicity of selected hits tested in the assay with NL4.3 infected cells was determined by MTT test. TZM cells were seeded on the previous day on 96-well plate in the density 5 x 10^3 cells per well. The tested compounds were added in different concentrations, but the DMSO concentration never exceeded 1 % DMSO. As controls were used cells treated only with 1 % DMSO (non-toxic concentration) and cells treated with 5 % DMSO (toxic concentration). 20 µl of the CellTiter 96 Aqueous One substrate (Promega) was added to the 100 µl of culture media 48 hrs after the compounds addition and the color development was quantified 4 hrs later by measuring the absorbance at 490 nm on Saphire reader. Compounds were consider non-cytotoxic (at given concentrations) when the measured values were higher than 80 % of the value of 1 % DMSO treated cells.

CA = biological target: T1, CA (Human immunodeficiency virus type 1 group M subtype B, UniProt P12493); assay: ALPHA screen (AlphaScreen): inhibition of CAI binding to CA; design: species or system HIV-1; details: CAI-biotin peptide / CA-GST; compounds screened at 0.5-100 µM; read-out: α screen IC50
T1 construct: a fusion protein of CA with glutathione-S-transferase (CA-GST)
Method: The AlphaScreen experiments are performed using Perkin Elmer Enspire plate reader in white 96-well ProxiPlates and PBS supplemented with 0.05% Tween20, 2mM DTT, 2% DMSO. First, Streptavidin-coated Donor beads are used to capture the CAI-biotin peptide. In the other solution, a fusion protein of CA with glutathione-S-transferase (CA-GST) is mixed with GSH Acceptor beads. Both mixtures were incubated and then mixed together. To test the ability of prepared organic compounds to inhibit the CAI binding to CA, they are screened at concentrations between 0.5-100 µM and IC50 values are calculated from the influenced signals.
Upon illumination by laser at 680 nm, Donor beads containing the photosensitizer phthalocyanine convert ambient oxygen to an excited form of singlet oxygen ^1O2. Singlet oxygen can within its half-life of ~ 4 µs diffuse approximately 200 nm in solution. If an Acceptor bead is within that proximity, which is mostly upon CA:CAI interaction, energy is transferred from the singlet oxygen to thioxene derivates within the Acceptor and signal at 520 - 620 nm is emitted.

SMILES	IC50 (wild type NL4.3 HIV-1) [µM]	toxicity LC50 (µM) (TZM cells)	IC50 (CA) [µM]
O=S(=O)(c1ccc(Nc2nc(-c3cccnc3)nc3ccccc23)cc1)c1nccs1 [KP-270]	> 10	non-toxic	
Fc1cccc(Nc2nc(-c3cccnc3)nc3ccccc23)c1 [KP-165]	> 10	non-toxic	
c1cncc(-c2nc(NC3CC3)c3ccccc3n2)c1 [KP-216]	> 10	non-toxic	
Fc1cc(Nc2nc(Nc3cc(F)c(F)c(F)c3)c3ccccc3n2)cc(F)c1F [KP-265]	~10	non-toxic	
COc1cc2c(Nc3ccc([N+](=O)[O-])cc3F)nc(-c3cccnc3)nc2c(OC)c1OC [KP-66]	~5	non-toxic	
FC(F)(F)c1cccc(Nc2nc(-c3cccnc3)nc3ccccc23)c1 [OSR-198]	> 25	non-toxic	
CCOC(=O)c1sc2nc(-c3cccnc3)nc(Nc3cc(F)c(F)c(F)c3)c2c1C [KP-199]	> 10	non-toxic	
CC(=O)c1ccc(Nc2nc(-c3ccncc3)nc3ccccc23)cc1 [AMR-535]	< 5	non-toxic	
Oc1cc(Cl)cc(Nc2nc(-c3cccnc3)nc3ccccc23)c1 [KP-251]	~5	non-toxic	
Fc1cc(Nc2nc(-c3ccccc3)nc3ccccc23)cc(F)c1F [KP-153]	10 to 15	non-toxic	
CCOC(=O)N1CCC(Nc2nc(-c3ccncc3)nc3ccccc23)CC1 [AMR-577]	> 10	non-toxic	
CS(=O)(=O)c1ccc(Nc2nc(-c3ccncc3)nc3ccccc23)cc1 [AMR-551]	> 10	non-toxic	
CC(C)(C)Oc1nc(-c2cccnc2)nc2ccccc12 [OSR-285]	> 10	non-toxic	
CCOC(=O)c1ccccc1Nc1nc(-c2ccncc2)nc2ccccc12 [AMR-540]	> 10	non-toxic	
Fc1c(F)c(F)c(Nc2nc(-c3cccnc3)nc3ccccc23)c(F)c1F [KP-107]	~7	non-toxic	
O=[N+]([O-])c1ccc(Nc2cc(-c3cccnc3)nc3ccccc23)c(F)c1 [KP-94]	~5		
Oc1ccc2nc(-c3cccnc3)nc(O)c2c1 [OSR-243]		non-toxic	
O=C(c1ccccc1)c1ccc(Nc2nc(-c3ccncc3)nc3ccccc23)cc1 [OSR-48]	> 25	non toxic	
N#Cc1ccc(Nc2nc(-c3ccncc3)nc3ccccc23)cc1 [AMR-549]	> 10	non-toxic	
COCCN(CCOC)c1nc(-c2cccnc2)nc2ccccc12 [OSR-283 HCl]	> 10	non-toxic	
COc1cc2nc(Nc3cc(F)c(F)c(F)c3)nc(Nc3cc(F)c(F)c(F)c3)c2cc1OC [KP-272]	< 5	non-toxic	
c1cncc(-c2nc(Nc3ccncn3)c3ccccc3n2)c1 [KP-111]	~18	non-toxic	
CC(=O)OC[C@H]1O[C@@H](Sc2nc(-c3cccnc3)nc3ccccc23)[C@H](OC(C)=O)[C@@H](OC(C)=O)[C@@H]1OC(C)=O [KP-119]	> 25	non-toxic	
Clc1ccc(Nc2nc(-c3cccnc3)nc3ccccc23)c(Cl)c1Cl [KP-260]	> 10	non-toxic	
Cc1c(CO)sc2nc(-c3cccnc3)nc(Nc3cc(F)c(F)c(F)c3)c12 [KP-233]	> 10	non-toxic	
CCN(CC)c1nc(-c2cccnc2)nc2ccccc12 [KP-237]	> 10	non-toxic	

SMILES	IC50 (wild type NL4.3 HIV-1) [µM]	toxicity LC50 (µM) (TZM cells)	IC50 (CA) [µM]
Fc1cc(Nc2ncnc3ccccc23)cc(F)c1F [KP-152]	~17	non-toxic	
O=C(O)c1ccc(Nc2nc(-c3ccncc3)nc3ccccc23)cc1 [AMR-542]	> 10	non-toxic	
COc1ccc(Nc2nc(-c3cc(F)c(F)c(F)c3)nc3ccccc23)cn1 [KP-291]	> 10	non-toxic	
Fc1ccc(Nc2nc(-c3cccnc3)nc3ccccc23)c(F)c1F [OSR-298]	> 10	non-toxic	
COc1ccc(Nc2nc(Cl)nc3ccccc23)cn1 [KP-288]	> 10	non-toxic	
COCCOc1cc2nc(-c3cccnc3)nc(Nc3ccc(C(=O)O)cc3O)c2cc1OCCOC [OSR-79 free base]	> 25	non toxic	
COc1ccc(Nc2nc(-c3cccnc3)nc3ccccc23)cn1 [KP-283]	> 10	non-toxic	
O=[N+]([O-])c1cnccc1Nc1nc(-c2cccnc2)nc2ccccc12 [KP-92]	~8	non-toxic	
C=Cc1ccc2nc(-c3cccnc3)nc(Nc3cc(F)c(F)c(F)c3)c2c1 [KP-130]	> 25	non-toxic	
C[S+]([O-])c1ccc(Nc2nc(-c3ccncc3)nc3ccccc23)cc1 (stereo not shown) [AMR-573]	> 10	non-toxic	
Fc1cc(F)c(Nc2nc(-c3cccnc3)nc3ccccc23)cc1F [OSR-299]	~10	non-toxic	
CC(C)Nc1nc(-c2cccnc2)nc2ccccc12 [OSR-295]	> 10	non-toxic	
Fc1ccc(Nc2nc(-c3cccnc3)nc3ccccc23)cc1F [KP-271]	~10	non-toxic	
CCOP(=O)(OCC)c1cc([N+](=O)[O-])ccc1Nc1nc(-c2cccnc2)nc2ccccc12 [KP-139]	> 25	non-toxic	
CC(O)c1ccc(Nc2nc(-c3ccncc3)nc3ccccc23)cc1 (stereo not shown) [AMR-566]	~10	non-toxic	
CSc1ccc(Nc2nc(-c3ccncc3)nc3ccccc23)cc1 [AMR-570]	~10	non-toxic	
Fc1cc(Nc2nc(-c3cccnc3)nc3ccccc23)c(F)c(F)c1F [KP-98]	~15	non-toxic	
O=[N+]([O-])c1cc(Nc2nc(-c3cccnc3)nc3ccccc23)ccc1F [AMR.425]		non toxic	7
Fc1cc(Nc2nc(-c3ccc(I)cc3)nc3ccccc23)cc(F)c1F [KP-161]	~10	non-toxic	
c1cncc(-c2nc(Oc3nc(-c4cccnc4)nc4ccccc34)c3ccccc3n2)c1 [OSA-296]	> 10	non-toxic	
O=[N+]([O-])c1cc(Nc2ccnc(-c3cccnc3)n2)ccc1F [KP-43]		non-toxic	
NC(=O)c1ccc(Nc2nc(-c3ccncc3)nc3ccccc23)cc1 [AMR-556]	> 10	non-toxic	
Cc1ccc(Nc2nc(-c3cccnc3)nc3ccccc23)cc1C(F)(F)F [KP-278]	~10	non-toxic	
Oc1ccc2nc(-c3cccnc3)nc(Nc3cc(F)c(F)c(F)c3)c2c1 [OSR-217]		non-toxic	
Fc1cc(F)c(Nc2nc(-c3cccnc3)nc3ccccc23)cc1Br [KP-100]		non-toxic	
